# Assay results from paper PMC3805573, “Methylglyoxal Evokes Pain by Stimulating TRPA1” (PLoS ONE, 2013).
# Columns and labels:
# [1] = system: TRPA1; assay: Outward TRPA1 currents in absence of Ca2+, effect of DTT; format: cell-based; conditions: +60 mV, Ca2+-free
# Protocol: DRG neurons and TRPA1 CHO cells were studied under voltage-clamp conditions using an Axopatch 200B amplifier and pClamp 10.0 software (Molecular Devices, Sunnyvale, CA). Except where stated otherwise, whole cell recordings were performed at a holding potential of –60 mV using an extracellular solution with the composition described above for [Ca^2+]i measurements. Borosilicate glass pipettes (2–5 MΩ, 75–80% series resistance compensation) were filled with (in mM) 140 KCl, 1 CaCl2, 2 MgATP, 10 EGTA, and 10 HEPES buffered to pH 7.4 (KOH). Excised inside-out patches were recorded using a Ca^2+-free solution containing (in mM) 140 NaCl, 5 KCl, 1 MgCl2, 10 HEPES and 1 EGTA, pH 7.4 (NaOH) in the pipettes and perfused with 140 KCl, 2 MgATP, 1 EGTA, and 10 HEPES (pH 7.4). DRG neurons were studied using an intracellular solution containing (in mM) 140 CsCl, 1 CaCl2, 2 MgATP, 10 EGTA and 10 HEPES, pH 7.4 (CsOH). Drugs were applied by local microperfusion with a rapid solution changer (RSC-200, Biologic, Claix, France).
# It is possible that MG stimulates TRPA1 through formation of reversible hemithioacetals with cysteine residues other than those examined here, [40]. To investigate this possibility we examined the effect of the reducing agent dithiothreitol (DTT, 2 mM) on outward TRPA1 currents recorded in the absence of Ca^2+ (5 mM BAPTA intracellularly, 1 mM EGTA extracellularly) to avoid Ca^2+-mediated inactivation or desensitization. We used DTT to determine whether disulfide bridge formation or reversible noncovalent interactions contribute to the agonist activity of MG. DTT is expected to rapidly reduce cystine bridges to free thiols, but also to form hemithioacetals with MG, thereby accelerating current decay. Covalent modification of arginine and lysine residues by MG and modification of cysteine residues by AITC are on the other hand resistant to DTT [31]. […] This is consistent with the expected oxidative formation of cystine bridges and their reduction by DTT [4]. The contrast between the stable currents produced by H2O2 and the spontaneously reversible currents evoked by MG highlights the reversible nature of the interaction between MG and TRPA1. […] We also observed that repeated applications of MG and H2O2 evoked reproducible current responses of similar amplitudes, whereas an application of AITC prevented subsequent channel activation by AITC challenges (Fig. 4C-E). We conclude that MG acts through a reversible interaction with TRPA1 and that H2O2 relies on DTT sensitive oxidative modification of TRPA1 protein for its activity. […] In contrast, the covalent modification produced by AITC appears irreversible and renders TRPA1 refractory to subsequent activation.
# [2] = system: beta cells; assay: [Ca2+]i-responses in pancreatic beta cells; format: cell-based, mice; conditions: AITC, cells from wildtype or Trpa1-/- mice (data not shown)
# Protocol: Mouse islets of Langerhans were isolated from the exocrine pancreas by collagenase digestion (1 mg/ml, type XI, Sigma, Poole, UK). Islets were dissociated by 15 min incubation in trypsin (0.5%, Sigma, Poole, UK) followed by trituration through a flame polished glass Pasteur pipette and the islet cells were seeded on glass cover slips.
# (§1) Cells were loaded with 2 µM Fura-2 AM (Molecular Probes, Paisley, UK) in the presence of 1 mM probenecid for ∼1 hr. The experiments were performed in a physiological saline solution containing (in mM) 140 NaCl, 5 KCl, 10 glucose, 10 HEPES, 2 CaCl2, and 1 MgCl2, buffered to pH 7.4 with NaOH. Compounds were applied to cells by local continuous microperfusion of solution through a fine tube placed in close proximity of the cells studied. Images of a group of cells were captured every 2 sec using 340 and 380 nm excitation wavelengths with emission measured at 520 nm with a microscope based imaging system (PTI, New Jersey). Analyses of emission intensity ratios at 340 nm/380 nm excitation (R, in individual cells) were performed using the ImageMaster suite of software.
# [3] = target: T1, mTRPA1 K712Q (Mus musculus, UniProt Q8BLA8, K712Q); assay: [Ca2+]i-responses of mTRPA1 K712Q in CHO cells; format: cell-based
# T1 construct: expressed in transfected cells; host or cells: CHO cells
# T1 sequence (Q8BLA8 whole entry K712Q): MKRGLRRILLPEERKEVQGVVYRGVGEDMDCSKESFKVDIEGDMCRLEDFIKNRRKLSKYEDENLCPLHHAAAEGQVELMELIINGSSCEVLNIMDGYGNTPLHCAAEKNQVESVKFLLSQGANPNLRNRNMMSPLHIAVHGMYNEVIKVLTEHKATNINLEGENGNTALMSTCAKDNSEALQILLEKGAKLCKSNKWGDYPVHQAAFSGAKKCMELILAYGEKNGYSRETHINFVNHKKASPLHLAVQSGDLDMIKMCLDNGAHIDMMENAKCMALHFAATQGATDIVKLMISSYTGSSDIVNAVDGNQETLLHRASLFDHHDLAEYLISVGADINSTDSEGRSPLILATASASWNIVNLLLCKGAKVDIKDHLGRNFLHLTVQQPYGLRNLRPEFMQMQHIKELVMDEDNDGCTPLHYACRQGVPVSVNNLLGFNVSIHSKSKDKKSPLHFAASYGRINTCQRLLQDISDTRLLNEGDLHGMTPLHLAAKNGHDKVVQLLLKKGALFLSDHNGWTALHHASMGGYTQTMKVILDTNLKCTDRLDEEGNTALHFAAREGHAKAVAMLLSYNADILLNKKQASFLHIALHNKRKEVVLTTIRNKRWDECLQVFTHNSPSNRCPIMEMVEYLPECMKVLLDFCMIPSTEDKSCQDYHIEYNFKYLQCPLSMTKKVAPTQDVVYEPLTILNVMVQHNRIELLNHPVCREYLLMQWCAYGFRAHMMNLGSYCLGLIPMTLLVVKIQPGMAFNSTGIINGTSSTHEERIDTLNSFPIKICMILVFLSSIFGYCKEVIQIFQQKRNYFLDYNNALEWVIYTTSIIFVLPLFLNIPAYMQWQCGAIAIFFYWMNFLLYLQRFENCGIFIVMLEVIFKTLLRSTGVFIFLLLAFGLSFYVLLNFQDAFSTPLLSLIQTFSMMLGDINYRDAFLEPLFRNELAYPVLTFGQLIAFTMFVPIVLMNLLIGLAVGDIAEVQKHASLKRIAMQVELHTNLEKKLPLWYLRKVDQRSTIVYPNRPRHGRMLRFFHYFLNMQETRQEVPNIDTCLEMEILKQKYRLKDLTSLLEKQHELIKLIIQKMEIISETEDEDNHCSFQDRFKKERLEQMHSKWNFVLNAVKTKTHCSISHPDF
# Protocol: (§2) Untransfected CHO cells and CHO cells expressing mouse or human TRPA1 were grown in MEM Glutamax or AQ medium supplemented with penicillin (100 U/ml), streptomycin (100 µg/ml), and FCS (10%). Plasmids encoding mutated TRPA1 channels were kindly provided by Dr. Ardem Patapoutian. All media, serum and antibiotics were from Invitrogen (Paisley, UK) or Sigma (Poole, UK).
# as §1
# [4] = system: human TRPA1 C621S, C641S or C665S; assay: [Ca2+]i-responses of human TRPA1 point mutants C621S, C641S, C665S; format: cell-based; conditions: human TRPA1 single point mutants vs wildtype
# Protocol: as §2
# as §1, with “Analyses of emission intensity ratios at 340 nm/380 nm excitation (R, in individual cells) were performed using the ImageMaster suite of software.” left out
# Changes in intracellular calcium ([Ca^2+]i) in response to agonists were determined in TRPA1 expressing CHO cells and MDCK cells using a Flexstation 3 (Molecular Devices). […] Basal emission ratios (340 nm/380 nm) were measured and changes in ratio determined at various times after compound addition.
# [5] = system: MDCK cells; assay: [Ca2+]i-measurements in MDCK cells; format: cell-based, Canine
# Protocol: MDCK cells were grown in DMEM (Invitrogen) supplemented with 5% fetal bovine serum, 100 U/ml penicillin and 100 µg/ml streptomycin. […] The experiments were performed in a physiological saline solution containing (in mM) 140 NaCl, 5 KCl, 10 glucose, 10 HEPES, 2 CaCl2, and 1 MgCl2, buffered to pH 7.4 with NaOH. Compounds were applied to cells by local continuous microperfusion of solution through a fine tube placed in close proximity of the cells studied. […] Analyses of emission intensity ratios at 340 nm/380 nm excitation (R, in individual cells) were performed using the ImageMaster suite of software. […] Cells grown in 96 well black walled plates (Costar, Tewksbury, MA) were loaded with Fura 2-AM in the presence of 1 mM probenecid at 37°C for 1–1.5 hours and assays were carried out at 25°C. Basal emission ratios (340 nm/380 nm) were measured and changes in ratio determined at various times after compound addition.
# [6] = system: mice; assay: Acute GLO-1 inhibition, paw pressure and von Frey tests; format: in vivo; conditions: 1 h after administration, 50 mg/kg i.p.
# Protocol: (§3) Mechanical thresholds were measured using an Analgesymeter (Ugo-Basile, Milan). Mice were kept in their holding cages to acclimatize (10–15 min) to the experimental room. The experimenter then lightly restrained the mouse and applied an increasing pressure stimulus to the dorsal surface of the hind paw using a blunt conical probe. The nociceptive threshold was defined as the force in grams at which the mouse withdrew its paw. In order to avoid tissue injury a 150 g force cut-off value was used.
# Tactile allodynia was assessed by measuring withdrawal thresholds to calibrated von Frey filaments (0.008–2 g). Animals were placed in a Perspex chamber with a metal grid floor giving access to the underside of their paws and allowed to acclimatize prior to the start of the experiment. […] Using a modified ‘up-down’ method the lowest force filament producing a positive response was recorded as the threshold.
# (§4) Methylglyoxal (250 nmoles in 25 µl saline) was injected subcutaneously into the plantar surface of one of the hind paws using a 50 µl luer-syringe (Hamilton Co.) fitted with a 26-gauge x 3/8 inch intradermal needle. Immediately after injection, mice were placed inside a Perspex chamber and the duration of the pain-related behaviors (licking and biting or flinching and shaking of the injected paw) recorded using a digital stop-watch. […]
# [7] = system: Trpa1+/+ and Trpa1-/- mice; assay: Two week GLO-1 inhibition, nociceptive responses to cold, heat and mechanical stimulation; format: in vivo
# Protocol: Data shown are from male and female homozygote Trpa1^− ^/− and Trpa1 ^+/+. The Trpa1-null mice and wild-type littermates were bred from heterozygotic mice provided by Drs. Kelvin Kwan and David Corey (Harvard Medical School, Boston, MA).
# as §3
# Tactile allodynia was assessed by measuring withdrawal thresholds to calibrated von Frey filaments (0.008–2 g). Animals were placed in a Perspex chamber with a metal grid floor giving access to the underside of their paws and allowed to acclimatize prior to the start of the experiment. Von Frey filaments were applied perpendicular to the mid plantar surface of the hind paw with sufficient force to cause slight bending against the paw and held for a few seconds. This was repeated 5 times at intervals of 1–2 s. A positive response was noted if the paw was sharply withdrawn or there was flinching upon removal of the hair. […] Using a modified ‘up-down’ method the lowest force filament producing a positive response was recorded as the threshold.
# Heat and cold sensitivities were assessed by measuring the time for paw withdrawal from a 50°C hotplate or 10°C coldplate (Ugo Basile, Milan) of lightly restrained mice.
# as §4
# [8] = system: Trpa1+/+ and Trpa1-/- mice; assay: Intraepidermal nerve fiber density in plantar skin (PGP9.5); format: in vivo; conditions: 2 weeks treatment, 50 mg/kg every other day, either genotype
# Protocol: Formalin fixed plantar skin was embedded in paraffin wax and cut in 8 µm sections and stained with rabbit polyclonal anti-PGP9.5 (1 in 5000, Ultraclone Ltd, UK) after citric acid heat induced epitope retrieval. Staining was visualized using anti-rabbit IgG labeled with Alexa-594. The number of PGP9.5 positive fibers crossing the basal membrane into the epidermis was determined in n = 6 mice for each group on a Zeiss Axioplan 2 microscope. The observer was blinded to the treatment.
# [9] = system: Trpa1+/+ and Trpa1-/- mice; assay: Glucose tolerance test, blood glucose; format: in vivo
# Protocol: The glucose tolerance test was performed in mice (not fasted) treated i.p. with 2 g/kg glucose or vehicle (0.2 ml, 0.9% saline). HC030031 (100 mg/kg) or vehicle (DMSO 10%, Tween 80 5%, 0.9% saline 85%) was administered i.p. 30 min before glucose or vehicle. Glucose concentrations were determined using a Contour blood glucose meter (Bayer Diabetes Care) in blood samples taken from the tail-tip.
structure (smiles),measurement,setting,value
C=CCN=C=S [AITC],effect of DTT (2 mM) on agonist-evoked TRPA1 current,[1]; AITC 50 µM,resistant to treatment with DTT
same,outward TRPA1 current after removal of agonist,[1]; AITC 50 µM,declined with time after removal of AITC
same,[Ca2+]i-responses in beta cells,[2],failed to elicit [Ca^2+]i-responses
same,amplitude of [Ca2+]i-responses in mTRPA1 K712Q compared to WT mTRPA1,[3]; AITC 50 µM,significantly reduced
same,"effect of substitutions C621S, C641S, C665S on sensitivity to AITC",[4],very substantially reduced
same,[Ca2+]i-influx response,[5]; 100 µM,evoked [Ca^2+]i-influx responses
same,EC50,"[5]; read-out: EC50, [Ca2+]i-responses",9.1 ± 2 µM
"CC(=Cc1ccc(Cl)cc1)C(C)=NO [AP18, 4-(4-chlorophenyl)-3-methylbut-3-en-2-one oxime]",effect on concentration-response curves for AITC and MG,[5]; AP18 10 µM,produced similar rightward shifts
"NC(CCC(=O)NC(CSCc1ccc(Br)cc1)C(=O)NCC(=O)OC1CCCC1)C(=O)OC1CCCC1 (stereo not drawn) [GLO-1 inhibitor, Sr-p-Bromobenzylglutathione cyclopentyl diester]",sensitivity in the paw pressure test,[6],unaffected
same,sensitivity in the von Frey filaments test,[6],unaffected
same,sensitivity to all four test modalities,"[7]; Trpa1+/+ mice, after day 4, 7 administrations over 2 weeks, 50 mg/kg i.p.",progressively increased
same,"sensitivity to cold, heat, paw-pressure and von Frey stimulation","[7]; first 4 days of the study, 50 mg/kg i.p. every 2 days",no increased sensitivity in any of the tests
same,persistence of hypersensitivities,[7]; two weeks after cessation of drug administration,no sign of reversal
same,IENF density compared to vehicle treated mice,[8],failed to produce a significant reduction
CC(C)c1ccc(NC(=O)Cn2cnc3c2c(=O)n(C)c(=O)n3C)cc1 [HC030031],blood glucose in mice not challenged with glucose,[9]; 100 mg/kg i.p.,increased the blood glucose
same,blood glucose following a glucose challenge,"[9]; 100 mg/kg i.p. 30 min before glucose 2 g/kg i.p., both Trpa1+/+ and Trpa1-/- mice",dramatically enhanced the increase in blood glucose
O=C/C=C/c1ccccc1 [cinnamaldehyde],[Ca2+]i-influx response,[5]; 1 mM,evoked [Ca^2+]i-influx responses
OO [hydrogen peroxide],effect of DTT (2 mM) on agonist-evoked TRPA1 current,[1]; H2O2 5 mM,rapidly reduced the current amplitude
same,outward TRPA1 current after removal of agonist,[1]; H2O2 5 mM,remained at a stable amplitude after removal of H2O2
same,[Ca2+]i-influx response,[5]; 20 mM,evoked [Ca^2+]i-influx responses
CC1=C[C@H]2c3c(O)cc(C)cc3OC(C)(C)[C@@H]2CC1 [Δ^9-tetrahydrocannabiorcol],amplitude of [Ca2+]i-responses in mTRPA1 K712Q compared to WT mTRPA1,[3]; 20 µM (Fig. 4D),significantly reduced
